{"source": "ChEMBL document CHEMBL1201862", "about": "“PubChem BioAssay data set” (2004)", "test_in_all_cases": "DTP human tumour cell line panel, 48 h", "key": {"NCI-H522": {"system": "NCI-H522"}, "Malme-3M": {"system": "Malme-3M"}, "SK-MEL-2": {"system": "SK-MEL-2"}, "SK-MEL-28": {"system": "SK-MEL-28"}, "SF-268": {"system": "SF-268"}, "UO-31": {"system": "UO-31"}, "M14": {"system": "M14"}, "SF-295": {"system": "SF-295"}, "PC-3": {"system": "PC-3"}, "TK-10": {"system": "TK-10"}, "MDA-MB-231": {"system": "MDA-MB-231"}, "COLO 205": {"system": "COLO 205"}, "U-251": {"system": "U-251"}, "EKVX": {"system": "EKVX"}, "CAKI-1": {"system": "CAKI-1"}, "SNB-19": {"system": "SNB-19"}, "SNB-75": {"system": "SNB-75"}, "HOP-62": {"system": "HOP-62"}, "BT-549": {"system": "BT-549"}, "SR": {"system": "SR"}}, "note": "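All cell lines were grown in 96-well plates and treated with compound for 48 hours. Abbreviation: GI50, concentration required for 50% inhibition of growth.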 Calls of active or inactive are those of the source. Rule as the data show it: active = GI50 up to about 1.1 µM and inactive = higher.", "data": [{"smiles": "CC(=O)/C=C1\\Nc2ccc([N+](=O)[O-])cc2N\\C1=C/C(C)=O", "values": [{"measurement": "GI50", "setting": "NCI-H522", "value": "16 µM (inactive)"}, {"measurement": "GI50", "setting": "Malme-3M", "value": "25.7 µM (inactive)"}, {"measurement": "GI50", "setting": "SK-MEL-2", "value": "29.2 µM (inactive)"}, {"measurement": "GI50", "setting": "SK-MEL-28", "value": "51.1 µM (inactive)"}, {"measurement": "GI50", "setting": "SF-268", "value": "47.8 µM (inactive)"}, {"measurement": "GI50", "setting": "UO-31", "value": "> 100 µM (inactive)"}, {"measurement": "GI50", "setting": "M14", "value": "> 100 µM (inactive)"}, {"measurement": "GI50", "setting": "SF-295", "value": "42.2 µM (inactive)"}, {"measurement": "GI50", "setting": "PC-3", "value": "44.3 µM (inactive)"}, {"measurement": "GI50", "setting": "TK-10", "value": "65.5 µM (inactive)"}, {"measurement": "GI50", "setting": "MDA-MB-231", "value": "92.5 µM (inactive)"}, {"measurement": "GI50", "setting": "COLO 205", "value": "58.2 µM (inactive)"}, {"measurement": "GI50", "setting": "U-251", "value": "35.3 µM (inactive)"}, {"measurement": "GI50", "setting": "EKVX", "value": "42.4 µM (inactive)"}, {"measurement": "GI50", "setting": "CAKI-1", "value": "58.2 µM (inactive)"}, {"measurement": "GI50", "setting": "SNB-19", "value": "42.2 µM (inactive)"}, {"measurement": "GI50", "setting": "SNB-75", "value": "> 100 µM (inactive)"}, {"measurement": "GI50", "setting": "HOP-62", "value": "44.9 µM (inactive)"}, {"measurement": "GI50", "setting": "BT-549", "value": "31.9 µM (inactive)"}, {"measurement": "GI50", "setting": "SR", "value": "17.9 µM (inactive)"}]}, {"smiles": "Nc1ccc(C(=O)Nc2ccccc2N)cc1", "note": "[DINALINE]", "values": [{"measurement": "GI50", "setting": "NCI-H522", "value": "11.1 µM (inactive)"}, {"measurement": "GI50", "setting": "Malme-3M", "value": "5.92 µM (inactive)"}, {"measurement": "GI50", "setting": "SK-MEL-2", "value": "23.3 µM (inactive)"}, {"measurement": "GI50", "setting": "SK-MEL-28", "value": "24.5 µM (inactive)"}, {"measurement": "GI50", "setting": "SF-268", "value": "31.1 µM (inactive)"}, {"measurement": "GI50", "setting": "UO-31", "value": "42.6 µM (inactive)"}, {"measurement": "GI50", "setting": "M14", "value": "65.2 µM (inactive)"}, {"measurement": "GI50", "setting": "SF-295", "value": "26.1 µM (inactive)"}, {"measurement": "GI50", "setting": "PC-3", "value": "31.5 µM (inactive)"}, {"measurement": "GI50", "setting": "TK-10", "value": "6.32 µM (inactive)"}, {"measurement": "GI50", "setting": "MDA-MB-231", "value": "30.3 µM (inactive)"}, {"measurement": "GI50", "setting": "COLO 205", "value": "17.6 µM (inactive)"}, {"measurement": "GI50", "setting": "U-251", "value": "17.7 µM (inactive)"}, {"measurement": "GI50", "setting": "EKVX", "value": "66.2 µM (inactive)"}, {"measurement": "GI50", "setting": "CAKI-1", "value": "42.8 µM (inactive)"}, {"measurement": "GI50", "setting": "SNB-19", "value": "> 100 µM (inactive)"}, {"measurement": "GI50", "setting": "SNB-75", "value": "> 36.3 µM (inactive)"}, {"measurement": "GI50", "setting": "HOP-62", "value": "18.7 µM (inactive)"}, {"measurement": "GI50", "setting": "BT-549", "value": "67.6 µM (inactive)"}, {"measurement": "GI50", "setting": "SR", "value": "16.3 µM (inactive)"}]}, {"smiles": "CO[C@H]1[C@H](O)[C@H](O[C@H]2CC[C@@]3(C)[C@H](CC[C@@H]4[C@@H]3CC[C@]3(C)[C@@H](C5=CC(=O)OC5)CC[C@]43O)C2)O[C@@H](C)[C@@H]1O", "note": "[NERIIFOLIN]", "values": [{"measurement": "GI50", "setting": "NCI-H522", "value": "0.000151 µM (active)"}, {"measurement": "GI50", "setting": "Malme-3M", "value": "0.000428 µM (active)"}, {"measurement": "GI50", "setting": "SK-MEL-2", "value": "0.00117 µM (active)"}, {"measurement": "GI50", "setting": "SK-MEL-28", "value": "0.00189 µM (active)"}, {"measurement": "GI50", "setting": "SF-268", "value": "0.000444 µM (active)"}, {"measurement": "GI50", "setting": "UO-31", "value": "0.000902 µM (active)"}, {"measurement": "GI50", "setting": "M14", "value": "0.00139 µM (active)"}, {"measurement": "GI50", "setting": "SF-295", "value": "0.00056 µM (active)"}, {"measurement": "GI50", "setting": "PC-3", "value": "0.000724 µM (active)"}, {"measurement": "GI50", "setting": "TK-10", "value": "0.000859 µM (active)"}, {"measurement": "GI50", "setting": "MDA-MB-231", "value": "0.00165 µM (active)"}, {"measurement": "GI50", "setting": "COLO 205", "value": "0.0018 µM (active)"}, {"measurement": "GI50", "setting": "U-251", "value": "0.00132 µM (active)"}, {"measurement": "GI50", "setting": "EKVX", "value": "0.000473 µM (active)"}, {"measurement": "GI50", "setting": "CAKI-1", "value": "0.000572 µM (active)"}, {"measurement": "GI50", "setting": "SNB-19", "value": "0.00094 µM (active)"}, {"measurement": "GI50", "setting": "SNB-75", "value": "0.000483 µM (active)"}, {"measurement": "GI50", "setting": "HOP-62", "value": "0.00027 µM (active)"}, {"measurement": "GI50", "setting": "BT-549", "value": "0.000429 µM (active)"}, {"measurement": "GI50", "setting": "SR", "value": "< 0.01 µM (active)"}]}, {"smiles": "CC(=O)[C@H]1CC[C@H]2[C@@H]3CCC4=CC(=O)CC[C@]4(C)[C@H]3CC[C@]12C", "note": "[PROGESTERONE]", "values": [{"measurement": "GI50", "setting": "NCI-H522", "value": "15.6 µM (inactive)"}, {"measurement": "GI50", "setting": "Malme-3M", "value": "17.3 µM (inactive)"}, {"measurement": "GI50", "setting": "SK-MEL-2", "value": "20 µM (inactive)"}, {"measurement": "GI50", "setting": "SK-MEL-28", "value": "18.4 µM (inactive)"}, {"measurement": "GI50", "setting": "SF-268", "value": "23.2 µM (inactive)"}, {"measurement": "GI50", "setting": "UO-31", "value": "11.4 µM (inactive)"}, {"measurement": "GI50", "setting": "M14", "value": "17.5 µM (inactive)"}, {"measurement": "GI50", "setting": "SF-295", "value": "25.9 µM (inactive)"}, {"measurement": "GI50", "setting": "PC-3", "value": "14.4 µM (inactive)"}, {"measurement": "GI50", "setting": "TK-10", "value": "23.9 µM (inactive)"}, {"measurement": "GI50", "setting": "MDA-MB-231", "value": "17.2 µM (inactive)"}, {"measurement": "GI50", "setting": "COLO 205", "value": "16 µM (inactive)"}, {"measurement": "GI50", "setting": "U-251", "value": "17.3 µM (inactive)"}, {"measurement": "GI50", "setting": "EKVX", "value": "1.16 µM (inactive)"}, {"measurement": "GI50", "setting": "CAKI-1", "value": "28.5 µM (inactive)"}, {"measurement": "GI50", "setting": "SNB-19", "value": "24.1 µM (inactive)"}, {"measurement": "GI50", "setting": "SNB-75", "value": "26.1 µM (inactive)"}, {"measurement": "GI50", "setting": "HOP-62", "value": "20.6 µM (inactive)"}, {"measurement": "GI50", "setting": "BT-549", "value": "16 µM (inactive)"}, {"measurement": "GI50", "setting": "SR", "value": "> 100 µM (inactive)"}]}]}
